Assay results reported in ChEMBL document CHEMBL1201862, “PubChem BioAssay data set” (2004).
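Values below derive from 48-hour exposures of cells grown in 96-well plates, with endpoints linearly interpolated between the two concentrations bracketing the appropriate inhibition level. At the GI50, growth is halved.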 Activity calls are given as the source filed them. Cut-off read from the data, not from the text of the source: active = GI50 up to about 1.1 µM and inactive = higher.

Assays:
Test in all cases: growth of human tumour cells (NCI), 48 h
[1] = tested on: A549
[2] = tested on: ACHN
[3] = tested on: EKVX
[4] = tested on: HCT-116
[5] = tested on: HL-60
[6] = tested on: K562
[7] = tested on: KM12
[8] = tested on: LOX IMVI
[9] = tested on: M14
[10] = tested on: MCF7
[11] = tested on: MDA-MB-231
[12] = tested on: MOLT-4
[13] = tested on: NCI-H226
[14] = tested on: NCI/ADR-RES
[15] = tested on: SN12C
[16] = tested on: SR
[17] = tested on: T47D
[18] = tested on: UACC-257
[19] = tested on: UACC-62
[20] = tested on: UO-31

| Structure (SMILES) | GI50 [1] | GI50 [2] | GI50 [3] | GI50 [4] | GI50 [5] | GI50 [6] | GI50 [7] | GI50 [8] | GI50 [9] | GI50 [10] | GI50 [11] | GI50 [12] | GI50 [13] | GI50 [14] | GI50 [15] | GI50 [16] | GI50 [17] | GI50 [18] | GI50 [19] | GI50 [20] |
| --- | --- | --- | --- | --- | --- | --- | --- | --- | --- | --- | --- | --- | --- | --- | --- | --- | --- | --- | --- | --- |
| Cc1cccc(/C=N/NC(=S)N(C)CCc2ccccn2)n1 | 0.417 µM (active) | 0.191 µM (active) | 0.391 µM (active) | 0.256 µM (active) | 0.0429 µM (active) | 0.163 µM (active) | 0.687 µM (active) | 0.207 µM (active) | 0.329 µM (active) | 0.42 µM (active) | 1.16 µM (inactive) | 0.0647 µM (active) | 0.39 µM (active) | 0.269 µM (active) | 0.378 µM (active) | 0.246 µM (active) | 0.123 µM (active) | 0.448 µM (active) | 0.287 µM (active) | 0.271 µM (active) |
| CCOC(=O)C1=C(c2ccccc2)N(C)c2ccccc2S1 | 35.6 µM (inactive) | 24.1 µM (inactive) | 32 µM (inactive) | 25.2 µM (inactive) | 37.4 µM (inactive) | 36.8 µM (inactive) |  | 16.7 µM (inactive) | 34.5 µM (inactive) | 36 µM (inactive) | 29.6 µM (inactive) | 32.4 µM (inactive) | 21.7 µM (inactive) | 22.3 µM (inactive) | 23.9 µM (inactive) | 31.6 µM (inactive) | 18.1 µM (inactive) | 31.6 µM (inactive) | 19 µM (inactive) | 22.4 µM (inactive) |
| O=c1[nH]cc(/C=N\Nc2ccccc2)c(=O)[nH]1 | > 100 µM (inactive) | 68.9 µM (inactive) | > 100 µM (inactive) | > 100 µM (inactive) | 5.78 µM (inactive) | 3.96 µM (inactive) | > 100 µM (inactive) | 6.14 µM (inactive) | > 100 µM (inactive) | > 100 µM (inactive) | > 100 µM (inactive) |  | > 100 µM (inactive) | > 100 µM (inactive) | > 100 µM (inactive) | > 100 µM (inactive) | 9.23 µM (inactive) | > 100 µM (inactive) | 66.7 µM (inactive) | > 100 µM (inactive) |
| O=C(OC(=C(c1ccccc1)c1ccccc1)N1CCCC1=S)C(c1ccccc1)c1ccccc1 | 4.67 µM (inactive) | 5.07 µM (inactive) | > 10 µM (inactive) | 4.12 µM (inactive) | > 10 µM (inactive) | 3.88 µM (inactive) | 4.5 µM (inactive) | 3.17 µM (inactive) | > 10 µM (inactive) | 7.67 µM (inactive) | 7.82 µM (inactive) | 5.01 µM (inactive) | 4.78 µM (inactive) | 5.87 µM (inactive) | > 10 µM (inactive) | > 10 µM (inactive) | 3.58 µM (inactive) | > 10 µM (inactive) | > 10 µM (inactive) | > 10 µM (inactive) |
| Clc1ccc(C2=C(c3ccccc3)C(c3ccc(Cl)cc3)N3C(=N[C@H]4CCCC[C@@H]43)N2)cc1 (some centres undefined) | 10.3 µM (inactive) | 11.2 µM (inactive) | 12.4 µM (inactive) | 4.08 µM (inactive) | 3.19 µM (inactive) | 2.3 µM (inactive) | 9.4 µM (inactive) | 11.8 µM (inactive) | 12.4 µM (inactive) | 7.06 µM (inactive) | 14.9 µM (inactive) | 4.46 µM (inactive) | 21 µM (inactive) | 11.4 µM (inactive) |  | 2.09 µM (inactive) | 15.6 µM (inactive) | 14.9 µM (inactive) | 16.7 µM (inactive) | 13.6 µM (inactive) |
| CN(C(=O)Cc1cc(Cl)c(Cl)cc1NC(=O)CCCN)[C@H]1CCCC[C@@H]1N1CCCC1 | 29.5 µM (inactive) | > 100 µM (inactive) | 45.1 µM (inactive) | 29.9 µM (inactive) | 22.4 µM (inactive) | > 100 µM (inactive) | 18.7 µM (inactive) | 18.6 µM (inactive) | 19 µM (inactive) | 20.1 µM (inactive) | 28.3 µM (inactive) | 60.8 µM (inactive) | 27 µM (inactive) | > 100 µM (inactive) | 63.5 µM (inactive) | 34.8 µM (inactive) | 29.8 µM (inactive) | 19.1 µM (inactive) | 19.8 µM (inactive) | > 100 µM (inactive) |
| COC(=O)c1c(O)ccc2c1c1c(n2Cc2ccccn2)C(=O)c2ccccc2C1=O | 29.8 µM (inactive) | 18.5 µM (inactive) | 36.7 µM (inactive) | 79.8 µM (inactive) | 62.2 µM (inactive) | > 100 µM (inactive) | 46.2 µM (inactive) |  | > 100 µM (inactive) | 54.1 µM (inactive) | > 100 µM (inactive) | 94.8 µM (inactive) | 70.1 µM (inactive) | 41.3 µM (inactive) | > 100 µM (inactive) | 22 µM (inactive) | 32 µM (inactive) | > 100 µM (inactive) | > 100 µM (inactive) | 87.9 µM (inactive) |
| N=C(c1ccc2ccccc2c1)c1ccccc1Cc1ccccc1 | 27.7 µM (inactive) | 45.5 µM (inactive) | 17.3 µM (inactive) | 16.8 µM (inactive) | 27.5 µM (inactive) | 29.9 µM (inactive) | 25.2 µM (inactive) | 45.6 µM (inactive) | 58.1 µM (inactive) | 33.5 µM (inactive) | > 100 µM (inactive) | 21.7 µM (inactive) | 28 µM (inactive) | 37.2 µM (inactive) | 34.8 µM (inactive) | 19.9 µM (inactive) | 17.3 µM (inactive) | 52.6 µM (inactive) | 43.3 µM (inactive) | 33.4 µM (inactive) |
| OCCOCCN1CCN(c2nc(N3CCCC3)c3nc(Cl)c(NCc4ccccc4)nc3n2)CC1 | 13 µM (inactive) | 14 µM (inactive) | 13.6 µM (inactive) | 12.8 µM (inactive) | 12.1 µM (inactive) | 3.94 µM (inactive) | 10.1 µM (inactive) | 10.5 µM (inactive) | 11.6 µM (inactive) | 13.9 µM (inactive) | 16.9 µM (inactive) | 10.7 µM (inactive) | 20.8 µM (inactive) | 14.5 µM (inactive) | 15.6 µM (inactive) | 4.38 µM (inactive) | 13.2 µM (inactive) | 14.1 µM (inactive) | 14 µM (inactive) | 9.4 µM (inactive) |
| Cc1ccc(C(=O)Cn2c(C(=O)/C=C/c3cccs3)nc3ccccc32)cc1 | 32.6 µM (inactive) | 61.4 µM (inactive) |  | 43.4 µM (inactive) | 22.7 µM (inactive) | 25.8 µM (inactive) | 24.2 µM (inactive) | 26.2 µM (inactive) | 49.9 µM (inactive) | 29.6 µM (inactive) | 71.3 µM (inactive) |  | > 100 µM (inactive) | 23.2 µM (inactive) | 32.9 µM (inactive) | 6.68 µM (inactive) | > 100 µM (inactive) | 24.4 µM (inactive) | 87.1 µM (inactive) | 62.8 µM (inactive) |
